Where two headings read alike, the source gives them in different places.
How the values were obtained:
COVID-19 [1] = test: Anecdotal case of a subject with COVID-19 taking ASA; assay type: in vivo; details: one person; at least 0.4 g ASA orally on at least a few days of the approximately 14-day illness; also 80 mg famotidine daily
[2] = cited from earlier work; for suppressing ACE-inhibitor induced cough: patients
COVID-19 [3] = details: COVID-19 patients who had been taking famotidine; cited from earlier work

For `CC(=O)Oc1ccccc1C(=O)O` [ASA, acetylsalicylic acid], the “common respiratory symptoms and effects of COVID-19 (shortness of breath, cough)” value (COVID-19 [1]) is listed as “none of the common respiratory symptoms and effects of COVID-19”, the “cough severity and cough frequency” value ([2]; 500 mg ASA daily) is listed as “Significant reductions” and the “patients with cough completely abolished” value ([2]; 500 mg ASA daily) is listed as “five of 14”. The “patients with cough significantly reduced” value ([2]; 500 mg ASA daily) was 13 of 14, the “suppressing ACE-inhibitor induced cough” value ([2]; intermediate dose, 500 mg ASA daily) was “extremely effective” and the “suppressing ACE-inhibitor induced cough” value ([2]; low dose, 100 mg ASA daily) was “ineffective”.
In the case of `NC(N)=Nc1nc(CSCCC(N)=NS(N)(=O)=O)cs1` [famotidine], the “clinical outcomes (intubations, deaths, symptoms) vs patients not taking famotidine” value (COVID-19 [3]) is given as “better outcomes”.

Reference: patent US20220105109A1, “METHODS OF TREATING COVID-19 AND COMPOSITIONS THEREFOR” (priority 2020, published 2022)
